The record followed here is US7390836B2, “Small molecules used to increase cell death” (priority 1999, dated 2008).

Data set [1] deals with tBid / Bcl-xL heterodimerization. Description: tBid pulldown with Bcl-xL-His6 beads. In kind it is binding. To be noted: for effect on tBid binding to Bcl-xL: 35S labeled in vitro translated tBid; for relative activity in tBid pulldown: comparison between compounds. The method, then:
Next, it was determined whether BH3Is could disrupt the heterodimerization of Bcl-xL with pro-apoptotic proteins from the Bcl-2 family, such as truncated Bid (tBid). Truncation of Bid by caspase-8 activates Bid and dramatically increases its affinity towards anti-apoptotic Bcl-2 family members (Li et al., Cell 94:491-501, 1998). To perform this study, in vitro translation of tBid or U2AF^65 (control) was performed using TNT® Coupled Reticulocyte and Wheat Germ Lysate Systems (Promega) respectively. Bcl-xL, U2AF^35 (control) or corresponding amounts of original Ni-NTA agarose beads (blank) were pre-incubated with the BH3 inhibitors or peptide in 100 μl of PBS for 30 min at 25° C. Then 1 μl of ^35S-labeled tBID or U2AF^65 was added and incubation was continued for 2 hr at 4° C. The samples were subjected to SDS-PAGE, coomassie blue staining and autoradiography.

The test system of data set [2] is Jurkat cells. Description: Caspase activation with fluorogenic substrates. It counts as cell-based. To be noted: for caspase-3-like activity (DEVD.amc) / caspase-9-like activity (LEHD.amc): BH3I-1 100 μM, BH3I-2 50 μM; for time of maximum activation of both caspases: after addition of the BH3I. On the procedure: FIG. 6F is a graph showing the time course of caspase activation in Jurkat cells, as assayed using a QuantiPak kit (Biomol). The cells were treated with 100 μM of BH3I-1 (triangles) or 50 μM of BH3I-2 (squares) for 2, 6, 12, or 24 hr. A fluorescence based assay of caspase-3 (Ac-DEVD-AMC) activity was then performed. The numbers represent relative AMC fluorescence in each sample compared to the value obtained with untreated Jurkat cells incubated for 24 hours, set at 1. Standard deviation values are also shown.
FIG. 6G is a graph showing the time course of caspase activation in Jurkat cells, as assayed using a QuantiPak kit (Biomol). The cells were treated with 100 μM of BH3I-1 (triangles) or 50 μM of BH3I-2 (squares) for 2, 6, 12 or 24 hr. A fluorescence based assay of caspase-9 (Ac-LEHD-AMC) activity was then performed. The numbers represent relative AMC fluorescence in each sample compared to the value obtained with untreated Jurkat cells incubated for 24 hours, set at 1. Standard deviation values are also shown.
FIG. 6H is a graph showing the comparison of caspase-9 (Ac-LEHD-AMC) (open bars) and caspase-8 (Ac-IETD-AMC) (closed bars) activation 12 and 24 hr after treatment of Jurkat cells with BH3Is.
To evaluate the activation of caspases by BH3Is, the activation of caspases in the presence of these compounds was measured using the preferred caspase-3 and caspase-9 fluorogenic substrates DEVD.amc and LEHD.amc. […] Activation of both caspases followed an essentially identical time course and reached a maximum 12 hours after addition of the BH3I. If BH3Is induce apoptosis through a mitochondrial pathway, caspase-9 should be activated before caspase-8, since the latter is a mediator of the death receptor pathway at the plasma membrane (Cryns et al., Genes Dev. 12:1551-70, 1998 [published erratum appears in Genes Dev. 13:371, 1999]). Therefore, the levels of caspase-9 and caspase-8 activity were compared by measuring LEHD.amc/IETD.amc cleavage activities.

Data set [3] concerns HeLa cells. Description: Cell death by ATP levels after zVAD-fmk pretreatment. It counts as cell-based. To be noted: zVAD-fmk 100 μM pretreatment, 48 or 72 hours. The method, then: The conditions under which cell death occurs in the presence of BH3Is were further evaluated. HeLa cells were pretreated with zVAD-fmk (100 μM) for 1 hour. The purpose of such a treatment was to inhibit the intracellular pathways mediating cell death by apoptosis. Each of the chemical compounds BH3I-1, BH3I-1′, or BH3I-2 was then added to the media of the cells of three separate samples. After 48 or 72 hours of exposure of the cells to zVAD-fmk and the chemical compound, the level of cell death was measured for each sample, by measuring cellular ATP levels.

The test system of data set [4] is HeLa cells that stably overexpress human BCL-XL. Description: Cell death by ATP levels in Bcl-xL overexpressing cells after zVAD-fmk pretreatment. In kind it is cell-based. To be noted: zVAD-fmk 100 μM pretreatment, 48 or 72 hours. On the procedure:
In another study, HeLa cells that stably overexpress human BCL-XL, and are therefore more resistant to cell death, were pretreated with zVAD-fmk (100 μM) for 1 hour, as described above. Each of the chemical compounds BH3I-1, BH3I-1′, and BH3I-2 from the ChemBridge library was then added to the media of the cells of three separate samples. After 48 or 72 hours of exposure of the cells to zVAD-fmk and the chemical compound, the level of cell death was measured for each sample, by measuring cellular ATP levels.

Data set [5] deals with Jurkat/Bcl-xL cells. The data set can be described thus: Cell death in Bcl-xL overexpressing Jurkat cells (MTS, PI, sub-G1, FAM-VAD-fmk). It counts as cell-based. The note with it: for sub-G1 DNA: 100 μM BH3I-1 or 30 μM BH3I-2; for dose at which Bcl-xL overexpression gave no protection / doses from which Bcl-xL overexpression provided protection: 48 hr, MTS or PI. On the procedure:
If BH3Is act through inhibiting the function of anti-apoptotic members of Bcl-2 family, overexpression of Bcl-xL should provide protection against BH3Is, which can be overcome by increased amount of BH3Is. Furthermore, Bcl-xL overexpressing cells. should still undergo apoptosis when treated with a high enough dose of a BH3I to overcome the protection by Bcl-xL. To test this theory, Jurkat/Bcl-xL cells were treated with BH3I-1 and BH3I-2 for 48 hr. Cell death was determined using the MTS assay (FIG. 9A) or PI staining (FIG. 9B). Overexpression of Bcl-xL provided protection for Jurkat cells from lower doses of BH3Is (up to 40 μM of BH3I-2 and up to 100 μM of BH3I-1). Overexpression of Bcl-xL, however, gave no protection after treatment with 80 μM of BH3I-2 or 200 μM of BH3I-1. […] Caspases were activated in Hoechst-positive dying cells following treatment with high doses of BH3Is.

Data set [6] relates to FL5.12/Bcl-xL cells. Description: Cell death upon IL-3 deprivation in Bcl-xL overexpressing cells. In kind it is cell-based. The note with it: PI staining. From the text:
This effect could be overcome by a higher dose of BH3Is (FIG. 9E). Inactivation of Bcl-xL by BH3Is in FL5.12/Bcl-xL cells was detected as an increase in cell death following IL-3 deprivation.

For `CC(C)C(C(=O)O)N1C(=O)C(=Cc2ccc(Br)cc2)SC1=S` (stereo in doubt) [BH3I-1], in data set [1], the “effect on tBid binding to Bcl-xL” value is given as “dose-dependent decrease in the tBid binding” and the “relative activity in tBid pulldown” value was “lower activity than BH3I-2”. For the same compound, in data set [2], the “caspase-3-like activity (DEVD.amc)” value is reported as “increase”, the “caspase-9-like activity (LEHD.amc)” value was “increase” and the “time of maximum activation of both caspases” value came to 12 h. Also, the “cellular ATP levels” value in data set [3] was “cellular ATP levels decreased”. Besides, the “cellular ATP levels” value in data set [4] is given as “cellular ATP levels decreased”. In data set [5], the “sub-G1 DNA” value is given as “induced the appearance of sub-GI DNA”, the “dose at which Bcl-xL overexpression gave no protection” value was 200 µM and the “doses from which Bcl-xL overexpression provided protection” value is reported as “up to 100 μM”. In data set [6], the “cytotoxicity upon IL-3 deprivation” value is “significantly increased upon IL-3 deprivation”.
With `CC(C)C(C(=O)O)N1C(=O)/C(=C/c2ccccc2)SC1=S` (stereo not shown) [BH3I-1″], the “relative activity in tBid pulldown” value in data set [1] was “even lower”.
Turning to `O=C(Nc1cc(S(=O)(=O)c2ccc(Cl)cc2)ccc1Cl)c1cc(Cl)cc(Br)c1O` [BH3I-2], the “effect on tBid binding to Bcl-xL” value in data set [1] was “dose-dependent decrease in the tBid binding”. In addition, in data set [2], the “caspase-3-like activity (DEVD.amc)” value was “increase”, the “caspase-9-like activity (LEHD.amc)” value was “increase” and the “time of maximum activation of both caspases” value came out at 12 h. The “cellular ATP levels” value in data set [3] is recorded as “cellular ATP levels decreased”. In addition, in data set [4], the “cellular ATP levels” value was “cellular ATP levels decreased”. Besides, in data set [5], the “sub-G1 DNA” value is given as “induced the appearance of sub-GI DNA”, the “dose at which Bcl-xL overexpression gave no protection” value is 80 µM and the “doses from which Bcl-xL overexpression provided protection” value is given as “up to 40 μM”. The “cytotoxicity upon IL-3 deprivation” value in data set [6] was “significantly increased upon IL-3 deprivation”.
